The assay concerns the target T1, eIF1-eIF4G1 complex (Homo sapiens, UniProt Q04637).
T1 construct: co-immunoprecipitation of endogenous eIF4G1 in HEK293T cells expressing HA-eIF1 or HA-eIF4E was performed; endogenous in cells; host or cells: HEK293T (eIF4G1 endogenous; HA-eIF1 transfected)
Nature of the assay: Co-immunoprecipitation of endogenous eIF4G1 with HA-eIF1. The assay is classed as cell-based. Conditions: HEK293T; i14G1-10 20 μM, i14G1-12 10 μM; 4 h. As for the experimental part: FIGS. 2A-C: The effect of i14G1-10 and i14G1-12 on eIF1-eIF4G1 and eIF4E-eIF4G1 complexes. (2A-B) HA-eIF1 and HA-eIF4E were each transfected into HEK293T cells and 48 h after transfection cells were treated with DMSO or i14G1-10 (2A) or i14G1-12 (2B) for 4 h, followed by immunoprecipitation of HA-eIF1 or HA-eIF4E using anti-HA-agarose beads. Western blot was run to check co-immunoprecipitation of endogenous eIF4G1 with HA-eIF1 or HA-eIF4E. The graphs represent the co-immunoprecipitation of eIF4G1 with HA-eIF1 (right) or HA-eIF4E (left). Co—IP data shown as mean±SEM of 4-7 independent experiments. The asterisks denote statistically significant difference compared to DMSO, according to Student's t-tests (one-tailed, paired). *p<0.05. (2C) HEK293T cells were treated with DMSO, i14G1-10, or i14G1-12 for 4 h, followed by cell lysis. Respective cell lysates were incubated with cap analog (γ-Aminohexyl-m7GTP) beads for 2 h to precipitate bound eIF4E. Western blot was performed to check co-precipitation of eIF4G1 along with eIF4E on the cap-analog beads. The graph represents the binding fraction of eIF4G1 and eIF4E to the cap-analog beads (mean±SEM) with DMSO (black), i14G1-10 (blue), and i14G1-12 (red), n=6. The asterisks denote statistically significant difference compared to DMSO, according to Student's t-tests (one-tailed, paired). *p<0.05; **p<0.01.
Co-immunoprecipitation. HEK293T cells were transfected with 5 μg of HA-eIF1 or HA-eIF4E plasmids along with 10 ng GFP plasmid to check for transfection efficiency using Jetprime reagent as per manufacturer's protocol. After 48 h, HA-eIF1 and HA-eIF4E expressing HEK293T cells were incubated with DMSO, i14G1-10 (20 μM), and […] (10 μM). 4 h later, cells were lysed using IP buffer (20 mM Tris pH8, 125 mM NaCl, 10% glycerol, 50 mM NaF, 1 mM […], 0.5% NP-40, and 0.2 mM EDTA) supplemented with fresh protease inhibitor cocktail (1:100) and PMSF 200 μM (1:100). Protein extract was taken for immunoprecipitation using either monoclonal anti-HA-agarose antibody (Sigma) or control IgG antibody in IP buffer, at 4° C. for 2 hours. […]

T1 sequence (Q04637 whole entry, one chain of several): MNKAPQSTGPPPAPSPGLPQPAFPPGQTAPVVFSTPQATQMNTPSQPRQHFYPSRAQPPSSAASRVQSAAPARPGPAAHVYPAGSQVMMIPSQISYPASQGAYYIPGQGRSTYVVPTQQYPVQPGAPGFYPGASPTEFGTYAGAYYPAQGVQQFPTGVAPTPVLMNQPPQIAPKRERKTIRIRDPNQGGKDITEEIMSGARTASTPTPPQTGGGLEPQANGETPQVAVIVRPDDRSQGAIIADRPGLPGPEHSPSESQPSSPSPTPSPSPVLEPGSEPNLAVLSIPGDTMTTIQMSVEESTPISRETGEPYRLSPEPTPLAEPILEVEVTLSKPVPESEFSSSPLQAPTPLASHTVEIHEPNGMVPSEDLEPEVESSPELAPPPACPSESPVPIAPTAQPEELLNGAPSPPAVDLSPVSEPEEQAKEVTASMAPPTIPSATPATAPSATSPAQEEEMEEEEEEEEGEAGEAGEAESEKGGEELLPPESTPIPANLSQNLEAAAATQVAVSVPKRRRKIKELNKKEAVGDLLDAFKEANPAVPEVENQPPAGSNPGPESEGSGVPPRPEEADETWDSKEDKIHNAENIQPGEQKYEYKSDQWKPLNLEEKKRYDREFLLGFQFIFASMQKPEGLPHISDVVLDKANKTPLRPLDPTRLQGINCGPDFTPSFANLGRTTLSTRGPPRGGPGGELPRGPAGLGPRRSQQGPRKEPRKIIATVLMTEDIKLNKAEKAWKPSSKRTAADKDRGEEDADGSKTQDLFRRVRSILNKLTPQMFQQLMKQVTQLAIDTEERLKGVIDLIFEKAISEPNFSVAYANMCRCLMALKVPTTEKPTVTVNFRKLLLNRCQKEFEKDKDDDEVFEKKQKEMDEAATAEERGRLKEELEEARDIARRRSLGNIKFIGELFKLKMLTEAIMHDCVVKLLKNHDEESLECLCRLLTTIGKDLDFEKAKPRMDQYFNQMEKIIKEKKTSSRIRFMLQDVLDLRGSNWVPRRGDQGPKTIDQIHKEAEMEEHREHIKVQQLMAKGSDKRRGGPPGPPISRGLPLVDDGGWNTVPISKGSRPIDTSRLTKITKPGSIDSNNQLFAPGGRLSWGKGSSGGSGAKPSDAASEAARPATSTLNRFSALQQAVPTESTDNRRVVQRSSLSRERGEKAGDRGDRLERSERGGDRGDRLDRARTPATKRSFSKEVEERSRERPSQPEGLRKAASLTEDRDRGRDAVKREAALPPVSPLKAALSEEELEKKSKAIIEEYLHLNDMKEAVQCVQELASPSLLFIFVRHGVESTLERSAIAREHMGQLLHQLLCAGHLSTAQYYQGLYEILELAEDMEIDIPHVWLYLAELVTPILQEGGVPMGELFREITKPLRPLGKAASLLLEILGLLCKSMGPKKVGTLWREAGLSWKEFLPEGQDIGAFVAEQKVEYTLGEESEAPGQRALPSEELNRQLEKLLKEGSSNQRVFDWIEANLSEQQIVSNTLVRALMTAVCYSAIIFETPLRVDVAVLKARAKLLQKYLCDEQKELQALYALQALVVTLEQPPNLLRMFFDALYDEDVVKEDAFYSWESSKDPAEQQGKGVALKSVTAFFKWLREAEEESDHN

As for `O=C(/C=C/Sc1ccc(C(F)(F)F)cn1)c1ccccc1` [i14G1-10], the “reduction in eIF4G1 binding to HA-eIF1” value was found to be 50%. With `Cn1ccnc1S/C(=C/C=C(C#N)C#N)c1ccc(Cl)cc1` [i14G1-12] the figure was 25%.

For the origin of these results see patent US20250090510A1, “eIF4G1-eIF1 INHIBITORS AND USE THEREOF” (YEDA RESEARCH AND DEVELOPMENT CO. LTD., priority 2022, published 2025).
